From PMC5428521, “Identification of a Novel, Small Molecule Partial Agonist for the Cyclic AMP Sensor, EPAC1” (Scientific Reports, 2017) come the findings set out here.

The target of one experiment is GST (Schistosoma japonicum, UniProt P08515). Put plainly: Ligand observed NMR (1D and waterLOGSY) with GST alone. It is filed as binding. As to conditions: compound 50 µM, GST 2.5 µM. An excerpt:
Given that I942 seems to exert selective agonist properties against EPAC1, but not EPAC2, we next sought to validate whether our isolated ligands can interact with EPAC1 and EPAC2. Ligand observed nuclear magnetic resonance (NMR) is a valuable tool for the identification and validation of small molecule ligands. We therefore used one dimensional proton (1D) and water-ligand observed by gradient spectroscopy (waterLOGSY) NMR to confirm the ability of I942 and I178 to bind to the purified CNBs of EPAC1 and EPAC2, in comparison with the commercially available EPAC1 antagonist, ESI-09[32]. In order to assess ligand/CNB interaction, 1D and waterLOGSY experiments were performed on each compound (50 µM) in the presence or absence of 2.5 µM EPAC-CNB. In the absence of protein, each test compound produced a well-resolved 1D spectrum and a region of each spectrum was chosen to display distinctive spectral peaks originating from the ligand (Fig. 6). In the absence of protein, the corresponding waterLOGSY peaks were small, or absent, due to the negligible signal produced by saturation transfer from water to the freely tumbling small molecule. […] In waterLOGSY spectra, protein-mediated saturation transfer can only occur if the protein-ligand complex has a substantial lifetime. […]
(A) One dimensional proton (1D) and waterLOGSY (WL) spectra were performed on samples containing hit compound I942 (50 µM) in the absence and presence of EPAC1-CNB, EPAC2-CNB or GST alone, as indicated (2.5 µM). […] Interaction between compound and protein was assessed through comparison of the compound alone and protein-compound sample spectra. […]
All NMR spectra were recorded on a Bruker AVANCE IIIHD 600 spectrometer equipped with a TCI cryoprobe at 285 K. Test compounds were prepared in deuterated DMSO and diluted to given experimental concentrations in NMR buffer (20 mM Na2PO4, pH 7.0, 50 mM NaCl, 0.1% (w/v) NaN3, 5% (v/v) D2O) with a final DMSO concentration below 0.1%. […] One dimensional proton (1D) and waterLOGSY spectra were recorded for all compounds tested, using pulse sequences as previously described. […]

Experiment [1] deals with T1, EPAC1 (amino acids 149–881) (Homo sapiens, UniProt O95398).
T1 construct: recombinant EPAC1 (amino acids 149–881); made in house; host or cells: bacteria
T1 sequence (O95398 149-881 isoform O95398-3): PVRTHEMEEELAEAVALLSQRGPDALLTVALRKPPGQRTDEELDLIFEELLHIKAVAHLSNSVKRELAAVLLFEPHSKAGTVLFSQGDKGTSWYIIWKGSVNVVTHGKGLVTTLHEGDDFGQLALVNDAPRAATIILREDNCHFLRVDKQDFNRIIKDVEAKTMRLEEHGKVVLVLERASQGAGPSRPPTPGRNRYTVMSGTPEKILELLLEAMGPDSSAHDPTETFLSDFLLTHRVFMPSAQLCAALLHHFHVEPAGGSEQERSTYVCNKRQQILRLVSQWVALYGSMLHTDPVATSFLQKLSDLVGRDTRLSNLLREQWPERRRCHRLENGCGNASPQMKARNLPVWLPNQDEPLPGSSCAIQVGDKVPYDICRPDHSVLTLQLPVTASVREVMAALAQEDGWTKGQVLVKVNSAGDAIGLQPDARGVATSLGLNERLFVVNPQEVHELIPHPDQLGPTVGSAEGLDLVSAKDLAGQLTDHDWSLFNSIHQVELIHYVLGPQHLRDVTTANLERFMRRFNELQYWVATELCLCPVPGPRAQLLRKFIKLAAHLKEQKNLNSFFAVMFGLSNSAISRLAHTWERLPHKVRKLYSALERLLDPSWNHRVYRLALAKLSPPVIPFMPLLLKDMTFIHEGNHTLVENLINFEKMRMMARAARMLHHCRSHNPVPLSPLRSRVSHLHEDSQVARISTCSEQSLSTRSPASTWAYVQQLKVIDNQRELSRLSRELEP
The experiment is described as follows: In vitro GEF activity assay (MANT-GDP dissociation from Rap1), EPAC1. The format is biochemical. The conditions noted are these: for AC50: AC50, GEF Activation (no cAMP), from kobs vs concentration. Here is the method: For this, we used the well-characterised EPAC GEF activity assay. The assay is based on the EPAC-stimulated dissociation of fluorescent MANT-GDP from recombinant Rap1 in the presence of excess non-fluorescent nucleotide.
The data are fitted as single exponential decay with off-set (red lines) to obtain the rate constants kobs, as shown in (b).
EPAC1 and EPAC2 in vitro GEF activities were calculated as previously described. Briefly, recombinant EPAC1 (amino acids 149–881) or EPAC2 (amino acids 280–993) were incubated at 100 nM with recombinant Rap1 (200 nM) preloaded with the fluorescent GDP analogue 2′/3′-O-(N-Methylanthraniloyl)guanosine 5-diphosphate (MANT-GDP) in the presence of 20 μM GDP and then the fluorescence intensity was measured at 360/450 nm (ex/em) over time. […] AC50 or IC50 values were determined from the plots of kobs against the concentration of the agonist and antagonist, respectively Table 1.

The structures appear in SMILES notation. Several values for one entry are separate records, joined by “and”; a condition that tells them apart may be missing. Equal entries are not always repeated.

GST, sequence (P08515 whole entry): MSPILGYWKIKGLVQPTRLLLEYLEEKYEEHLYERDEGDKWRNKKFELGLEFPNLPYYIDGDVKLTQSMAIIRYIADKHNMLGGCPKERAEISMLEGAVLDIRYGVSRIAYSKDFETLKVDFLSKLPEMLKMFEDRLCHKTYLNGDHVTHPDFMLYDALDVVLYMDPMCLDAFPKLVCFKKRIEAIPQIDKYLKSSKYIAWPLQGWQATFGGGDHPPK

What is called IC50 is the midpoint of a concentration-inhibition curve. A higher IC50 goes with weaker potency in that assay. Broadly, the AC50 is the midpoint of the concentration-response curve, whichever way the signal moves. Low values mean greater potency, high ones weaker potency. On to `O=C(COc1ccc2ccccc2c1)NS(=O)(=O)c1ccccc1` [I178, N-(benzenesulfonyl)-2-(naphthalen-2-yloxy)acetamide], for which the “NMR interaction with GST alone” value on GST is “No peak broadening”. In experiment [1], the IC50 is roughly 500 µM. Besides, the AC50 in experiment [1] (absence of cAMP) is 200 µM and ~200 µM.

For `Cc1ccc(S(=O)(=O)NC(=O)COc2ccc3ccccc3c2)c(C)c1` [I942, N-(2,4-dimethylbenzenesulfonyl)-2-(naphthalen-2-yloxy)acetamide], at GST, the “NMR interaction with GST alone” value is “No peak broadening”. In experiment [1], the IC50 is roughly 300 µM. Further, in experiment [1] (absence of cAMP), the AC50 was 50 µM and ~50 µM; the “maximal induced activity, fold lower than that of cAMP” value is given as “around 10 fold”.
